Data reported in patent US20200079757A1, “COMPOUNDS FOR THE TREATMENT OF RESPIRATORY DISEASES” (THE UNIVERSITY OF MELBOURNE, priority 2017, published 2020).

Columns and labels:
[1] = test system: PAI-1 gene expression in BEAS-2B cells; test: TNF-α and TGF-β induced PAI-1 gene expression in BEAS-2B cells (RT-qPCR); type: cell-based; conditions: agent 10 μM
Method: The primary assay for the activity of the novel CK1δ/ε inhibitors is the modulation of gene expression in the airway epithelial cell line, the BEAS-2B cells. The assay is conducted under several conditions. Generally, TGF-β or TNF-α is used to elicit fibrogenic or inflammatory genes, respectively. The agents are added at a concentration of 10 μM, or at the indicated concentrations for a period of 30 min prior to the addition of TGF-β/TNF-α which are incubated for a further 20 hours before the addition, in some experiments of the glucocorticoid, dexamethasone (Dex, 30 nM) for the final 4 hours of the experiment, prior to harvest of cellular RNA to measure by RT-qPCR the levels of mRNA of marker genes for inflammation and fibrogenesis. The inhaled corticosteroid (ICS), budesonide is also used in some experiments. Furthermore, the supernatants are harvested at the end of the incubation periods in selected experiments to measure the levels of CSF-2 or IL-8 by ELISA as described in (Tran et al. (2005) British Journal of Pharmacology, 145, 123-131). Prior to experimentation, BEAS-2B and A549 cells were incubated in serum-free DMEM containing 0.25% bovine serum albumin (BSA) and insulin-transferrin-selenium—containing supplement (Monomed A; CSL, Parkville, Melbourne, Australia). Where indicated, cells were treated with one of the series of synthesised compounds (0.3-10 μM) prior to exposure to 100 pM TGF-β1 (R&D Systems, Minneapolis, Minn.) or 300 pM bFGF (Promega, Madison, Wis.). Total RNA was extracted from cultured cells using illustra RNAspin Mini RNA Isolation Kit (GE Healthcare). RNA extracts were reverse-transcribed into cDNA using High-Capacity RNA-to-cDNA Kit (Applied Biosystems). Real-time PCR was then performed using a QuantStudio 6 Flex Real-Time PCR System using iTaq Universal SYBR green supermix and the following thermal protocol: 50° C. (2 min), 95° C. (10 min), then 40 cycles of 95° C. (15 sec), 60° C. (1 min). The threshold cycle (CT) values determined for target genes were normalized against those obtained for 18S ribosomal RNA (18S rRNA), which was included as internal control. The generation of specific PCR products was confirmed by dissociation curve analysis. In the same experiment as described in FIG. 1, the expression of the fibrogen plasminogen activator inhibitor-1 was measured (see FIG. 2). The levels of this gene are increased by both TGF-β and by Dex and they synergise when added together. The CK1 inhibitors concentration-dependently reduce the effects of each of the stimuli and further reduce baseline expression. Their potency in this effect is similar, regardless of the condition being considered. In a separate experiment BEAS-2B cells were exposed to TNF-α with(out) 30 min pretreatment with either SS9-010 or PF670462 (1-10 μM). RNA was then extracted and analyzed by RT-qPCR. Each agent inhibited TNFa stimulated PAI-1 expression with similar potency and maxima (see FIG. 3). Data are presented as mean±SD for n=1 (three technical replicates).

[2] = test system: Col 1A gene expression in BEAS-2B cells; test: TNFα and TGFβ induced Col 1A gene expression in BEAS-2B cells (RT-qPCR); type: cell-based; conditions: agent 10 μM
Method: The primary assay for the activity of the novel CK1δ/ε inhibitors is the modulation of gene expression in the airway epithelial cell line, the BEAS-2B cells. The assay is conducted under several conditions. Generally, TGF-β or TNF-α is used to elicit fibrogenic or inflammatory genes, respectively. The agents are added at a concentration of 10 μM, or at the indicated concentrations for a period of 30 min prior to the addition of TGF-β/TNF-α which are incubated for a further 20 hours before the addition, in some experiments of the glucocorticoid, dexamethasone (Dex, 30 nM) for the final 4 hours of the experiment, prior to harvest of cellular RNA to measure by RT-qPCR the levels of mRNA of marker genes for inflammation and fibrogenesis. The inhaled corticosteroid (ICS), budesonide is also used in some experiments. Furthermore, the supernatants are harvested at the end of the incubation periods in selected experiments to measure the levels of CSF-2 or IL-8 by ELISA as described in (Tran et al. (2005) British Journal of Pharmacology, 145, 123-131).
Prior to experimentation, BEAS-2B and A549 cells were incubated in serum-free DMEM containing 0.25% bovine serum albumin (BSA) and insulin-transferrin-selenium—containing supplement (Monomed A; CSL, Parkville, Melbourne, Australia). Where indicated, cells were treated with one of the series of synthesised compounds (0.3-10 μM) prior to exposure to 100 pM TGF-β1 (R&D Systems, Minneapolis, Minn.) or 300 pM bFGF (Promega, Madison, Wis.).
Total RNA was extracted from cultured cells using illustra RNAspin Mini RNA Isolation Kit (GE Healthcare). RNA extracts were reverse-transcribed into cDNA using High-Capacity RNA-to-cDNA Kit (Applied Biosystems). Real-time PCR was then performed using a QuantStudio 6 Flex Real-Time PCR System using iTaq Universal SYBR green supermix and the following thermal protocol: 50° C. (2 min), 95° C. (10 min), then 40 cycles of 95° C. (15 sec), 60° C. (1 min). The threshold cycle (CT) values determined for target genes were normalized against those obtained for 18S ribosomal RNA (18S rRNA), which was included as internal control. The generation of specific PCR products was confirmed by dissociation curve analysis.

[3] = test system: SCNN1A gene expression in BEAS-2B cells; test: TGF-β-induced suppression of dexamethasone-induced SCNN1A gene expression in BEAS-2B cells; type: cell-based; conditions: BEAS-2B, agent 10 μM
Method: The primary assay for the activity of the novel CK1δ/ε inhibitors is the modulation of gene expression in the airway epithelial cell line, the BEAS-2B cells. The assay is conducted under several conditions. Generally, TGF-β or TNF-α is used to elicit fibrogenic or inflammatory genes, respectively. The agents are added at a concentration of 10 μM, or at the indicated concentrations for a period of 30 min prior to the addition of TGF-β/TNF-α which are incubated for a further 20 hours before the addition, in some experiments of the glucocorticoid, dexamethasone (Dex, 30 nM) for the final 4 hours of the experiment, prior to harvest of cellular RNA to measure by RT-qPCR the levels of mRNA of marker genes for inflammation and fibrogenesis. The inhaled corticosteroid (ICS), budesonide is also used in some experiments. Furthermore, the supernatants are harvested at the end of the incubation periods in selected experiments to measure the levels of CSF-2 or IL-8 by ELISA as described in (Tran et al. (2005) British Journal of Pharmacology, 145, 123-131). Prior to experimentation, BEAS-2B and A549 cells were incubated in serum-free DMEM containing 0.25% bovine serum albumin (BSA) and insulin-transferrin-selenium—containing supplement (Monomed A; CSL, Parkville, Melbourne, Australia). Where indicated, cells were treated with one of the series of synthesised compounds (0.3-10 μM) prior to exposure to 100 pM TGF-β1 (R&D Systems, Minneapolis, Minn.) or 300 pM bFGF (Promega, Madison, Wis.). Total RNA was extracted from cultured cells using illustra RNAspin Mini RNA Isolation Kit (GE Healthcare). RNA extracts were reverse-transcribed into cDNA using High-Capacity RNA-to-cDNA Kit (Applied Biosystems). Real-time PCR was then performed using a QuantStudio 6 Flex Real-Time PCR System using iTaq Universal SYBR green supermix and the following thermal protocol: 50° C. (2 min), 95° C. (10 min), then 40 cycles of 95° C. (15 sec), 60° C. (1 min). The threshold cycle (CT) values determined for target genes were normalized against those obtained for 18S ribosomal RNA (18S rRNA), which was included as internal control. The generation of specific PCR products was confirmed by dissociation curve analysis. In FIG. 1, the effects of SS9-010 are contrasted with those of PF670462 in an assay in BEAS-B cells measuring the induction of the glucocorticoid-regulated gene, SCNN1A encoding the protein epithelial sodium channel alpha subunit. Serum-starved BEAS-2B cells were treated with CK1δ/ε inhibitor PF670462 (1, 3, 10 μM) or SS9-010 (1, 3, 10 μM) 30 min prior to TGF-β1 (40 pM) for 24 hours, then stimulated with dexamethasone (30 nM) for 4 hours. RNA was then extracted and analyzed by RT-qPCR. Data are presented as mean±SEM for n=4 independent experiments. The potency of PF670462 and SS9-010 were similar.

melting point [°C] | Structure (SMILES) | PAI-1 mRNA level, TGF-β [1] | PAI-1 mRNA level, TNF-α (n = 2) [1] [fold control] | PAI-1 mRNA level, vehicle (no stimulus) [1] [fold control] | Col1A mRNA level, TGF-β [2] | Col1A mRNA level, TNF-α (n = 2) [2] [fold control] | Col1A mRNA level, vehicle (no stimulus) [2] [fold control] | SCNN1A mRNA level, Dex [3] [fold control] | SCNN1A mRNA level, TGF-β [3] [fold control] | SCNN1A mRNA level, TGF-β/Dex [3] [fold control] | SCNN1A mRNA level, vehicle (no stimulus) [3] [fold control]
229 to 231 | Nc1nccc(-c2c(-c3ccc(F)cc3)ncn2C2CCC2)n1 [ZH-62, 4-(1-Cyclobutyl-4-(4-fluorophenyl)-1H-imidazol-5-yl)pyrimidin-2-amine] |  |  |  |  |  |  |  |  |  | 
180 to 199 | Nc1nccc(-c2c(-c3ccc(F)cc3)ncn2CC2CCCCC2)n1 [ZH-138, 4-(1-(Cyclohexylmethyl)-4-(4-fluorophenyl)-1H-imidazol-5-yl)pyrimidin-2-amine] |  |  |  |  |  |  |  |  |  | 
204 to 212 | CCn1cnc(-c2ccc(F)cc2)c1-c1ccnc(N)n1 [ZH-6, 4-(1-(Ethyl)-4-(4-fluorophenyl)-1H-imidazol-5-yl)pyrimidin-2-amine] |  |  |  |  |  |  |  |  |  | 

Further lines, the molecule ahead of its results:

Structure (SMILES) | melting point [°C] | PAI-1 mRNA level, TGF-β [1] | PAI-1 mRNA level, TNF-α (n = 2) [1] [fold control] | PAI-1 mRNA level, vehicle (no stimulus) [1] [fold control] | Col1A mRNA level, TGF-β [2] | Col1A mRNA level, TNF-α (n = 2) [2] [fold control] | Col1A mRNA level, vehicle (no stimulus) [2] [fold control] | SCNN1A mRNA level, Dex [3] [fold control] | SCNN1A mRNA level, TGF-β [3] [fold control] | SCNN1A mRNA level, TGF-β/Dex [3] [fold control] | SCNN1A mRNA level, vehicle (no stimulus) [3] [fold control]
C#CCNc1nccc(-c2c(-c3ccc(F)cc3)ncn2C2CCCCC2)n1 [compound 83, 4-(1-Cyclohexyl-4-(4-fluorophenyl)-1H-imidazol-5-yl)-N-(prop-2-yn-1-yl)pyrimidin-2-amine] | 147 to 155 |  |  |  |  |  |  |  |  |  | 
OCCNc1nccc(-c2c(-c3ccc(F)cc3)ncn2C2CCCCC2)n1 [compound 84, 2-((4-(1-Cyclohexyl-4-(4-fluorophenyl)-1H-imidazol-5-yl)pyrimidin-2-yl)amino)ethan-1-ol] | 180 to 184 |  |  |  |  |  |  |  |  |  | 
Fc1ccc(-c2ncn(C3CCCCC3)c2-c2ccnc(NC3CCC3)n2)cc1 [compound 81, N-Cyclobutyl-4-(1-cyclohexyl-4-(4-fluorophenyl)-1H-imidazol-5-yl)pyrimidin-2-amine] | 185 to 189 |  |  |  |  |  |  |  |  |  | 
Cc1ccc(-c2ncn(C3CCCCC3)c2-c2ccnc(N)n2)cc1 [SS8-186] |  | 6.58 ± 1.04 fold control | 1.54 | 0.75 ± 0.07 | 3.14 ± 0.20 fold control | 0.56 | 0.50 ± 0.12 | 3.06 ± 0.34 | 0.42 ± 0.06 | 1.84 ± 0.25 | 1.36 ± 0.17
CC(C)(C)n1cnc(-c2ccc(F)cc2)c1-c1ccnc(N)n1 [ZH9-190, 4-(1-(Tert-butyl)-4-(4-fluorophenyl)-1H-imidazol-5-yl)pyrimidin-2-amine] | 189 to 197 |  |  |  |  |  |  |  |  |  | 
CCCCN1CCC(n2cnc(-c3ccc(F)cc3)c2-c2ccnc(N)n2)CC1 [SS9-074, 4-(1-(1-Butylpiperidin-4-yl)-4-(4-fluorophenyl)-1H-imidazol-5-yl)pyrimidin-2-amine] |  | 12.3 (n = 2) fold control | 1.83 | 0.68 | 12.2 (n = 2) fold control | 2.14 | 1.61 | 3.46 | 0.36 | 3.27 | 1.22
Nc1nccc(-c2c(-c3ccc(F)cc3)ncn2C2CCN(CCCCc3ccccc3)CC2)n1 [SS8-070, 4-(4-(4-Fluorophenyl)-1-[1-(4-phenylbutyl)piperidin-4-yl)-1H-imidazol-5-yl)pyrimidin-2-amine] |  | 6.57 (n = 2) fold control | 0.79 | 0.41 | 8.52 (n = 2) fold control | 0.88 | 1.17 | 3.79 | 0.42 | 2.15 | 1.63
Nc1nccc(-c2c(-c3ccc(F)cc3)ncn2C23CC4CC(CC(C4)C2)C3)n1 [SS8-122, 4-(Adamantan-1-yl-4-(4-fluorophenyl)-1H-imidazol-5-yl)pyrimidin-2-amine] |  |  | 2.76 | 1.45 | 8.07 fold control | 1.56 | 1.39 | 4.26 | 0.15 | 1.67 | 0.86
